Entries after “also recorded” stand apart in the source; their conditions may differ.
What was measured:
HCT-116 [1] = tested on: HCT-116
Experimental: (§1) Besides the cell viability assay, we decided to measure the apoptotic activity in the above combination therapy.
(§2) Cells were treated with 5-FU (5-100 μM) and etoposide (1-50 μM) along with VTD (30 and 100 μM respectively) in two different set of experiments for 24 hours.
(§3) An MTT (3[4, 5-dimethylthiazol-2-yl]-2, 5-diphenyltetrazolium bromide) assay was performed to measure the viability of cells. Briefly, cells were seeded at a density of 10×10^3 cells per well in phenol-red free growth media. After 24 hours, cells were treated with various concentrations of VTD±5-FU or etoposide. After incubation, an MTT dye was added to the cells for 2-4 hours. The absorbance of samples was measured at 630 nm using an EXL808 absorption spectrophotometer (Biotek, Winooski). The viability of cells was calculated as % of control. Cell detachment and clonogenic survival assays were conducted as previously described. Early apoptosis, caspase-3, cleaved PARP and Sytox Red (Life Technology, NY, USA) were measured by the Accuri C6 flow cytometer system (BD Pharmingen, MD, USA).[54]
(§4) (A-H) (A-C) HCT-116 and (D-F) LoVo were treated with VTD (10-300 μM) for 24, 48, and 72 hours. A suboptimal dose of Etoposide (ETO) ([…]) was added to cells for the last 24 hours only. The viability of cells was determined as % of control (untreated cells) using an MTT assay. […] (G-H) HCT-116 (G) and LoVo (H) cells were treated with VTD (10-200 μM) and a suboptimal dose of ETO (5 μM) for 24 hours. Cells were then stained with Annexin V apoptotic marker. […] (I-L) HCT-116 and LoVo cells were treated with different doses of 5-FU (5-100 μM, I-J) and ETO (1-50 μM, K-L) along with VTD (30 μM and 100 μM respectively) for 24 hours.

LoVo [2] = tested on: LoVo
Experimental: as §1, §2, §3, §4

HCT-116 [3] = test: Annexin V early apoptosis, VTD plus etoposide; assay type: cell-based, human; settings: VTD 10-200 μM plus etoposide 5 μM, 24 hours
Experimental: (§5) The viability of cells was calculated as % of control.
(§6) Cells were then stained with Annexin V apoptotic marker.

LoVo [4] = test: Annexin V early apoptosis, VTD plus etoposide; assay type: cell-based, human; settings: VTD 10-200 μM plus etoposide 5 μM, 24 hours
Experimental: as §5, §6

UBXN2A = test: RT-PCR and western blot of UBXN2A in etoposide-treated HCT-116 cells; assay type: cell-based, human
p53 = test: Western blot of p53 in cytoplasm and nuclear fractions of etoposide-treated HCT-116 cells; assay type: cell-based, human; settings: 20 and 50 μM etoposide, 24 h
Description: Small molecules, p53 c-terminus peptides, and silenced mot-2 abrogate mot-2-p53 complexes, resulting in p53 nuclear localization. Because UBXN2A is capable of releasing p53 from mot-2, we decided to determine whether UBXN2A can lead to p53 nuclear accumulation in a similar mechanism. HCT-116 cells were transiently transfected with different amounts of UBXN2A plasmid. Exogenous UBXN2A was detected dominantly in the cytoplasm fraction (FIG. 4a), and, therefore, it is an ideal model to identify the cellular consequences of UBXN2A gain-of-function. After 48 h, nuclear and cytoplasmic fractions were collected, followed by WB analysis (FIGS. 4a-d). […] Similar to several previously reported scenarios,^23 co-upregulation of UBXN2A with p53 may be essential to inhibiting mot-2 and delivering maximum p53 into nuclei during the initiation of genotoxic stress. Similar results were obtained in response to single DNA-strand damage produced by UVB irradiation. In the next step, we decided to determine whether UBXN2A increases the transcriptional activities of p53. We found overexpression of UBXN2A led to upregulation of BAX protein^24 (FIG. 4g). In addition, the level of cleaved PARP increased in the presence of overexpressed UBXN2A (FIG. 4g). […]

CCD-18Co = test: Annexin V staining and flow cytometry (positive control); assay type: cell-based, human; settings: 100 nM, 24 hours
Experimental: (§7) Apoptosis in cells was assessed using an Annexin V Apoptosis Detection Kit (BD Pharmingen, San Jose, CA, USA) analyzed by using a BD Accuri C6 flow cytometer according to the manufacturer's instructions.
(§8) HCT-116 or SW48 were transfected with GFP empty vector or GFP-UBXN2A using the Neon electrotransfection system (HCT-116 and SW48) or lipofectamin 2000 (CCD-118-Co), achieving around 80% transfection efficiency. Apoptosis in cells was assessed using an Annexin V Apoptosis Detection Kit (BD Pharmingen, San Jose, CA) analyzed by a BD Accuri C6 flow cytometer according to the manufacturer's instructions. In each individual experiment, GFP expressing cells were first gated and then plotted versus Annexin V positive cells. 10,000 gated events were collected per sample. An apoptotic inducer, staurosporine (Sigma), was used as a positive control in all experiments.
(§9) FIG. 12: Annexin V staining and flow cytometry is a valid assay for measurement of early apoptosis. Un-transfected CCD-18Co, HCT-116, and SW48 cells were incubated with vehicle or staurosporine, a well-known inducer of apoptosis in a wide range of cell lines, for 24 hours. Subsequently, cells were stained with BD Biosciences Cy5 Annexin V and read on an Accuri C6 flow cytometer. Panel A. The histograms show a comparison of the distribution of Annexin V positive cells in un-transfected CCD-18Co, HCT-116 and SW48 cells (no gating). […] Panel C-D: We conducted a set of IP experiments to further confirm UBXN2A can only bind to the SBD domain and not the ATP domain. HCT-116 cells were transiently transfected with SBD domain or ATP domain of mot-2. After 36 hours, cell lysates were prepared followed by immunoprecipitation using anti-UBXN2A immobilized on magnetic protein G beads. Immunoprecipitation experiments verified UBXN2A binds to the SBD domain of mot-2 (amino acid residue 432-679) in HCT-116 cells and not the ATP domain (amino acid residue 1-437). This set of immunoprecipitation experiments verified results achieved in Y2H experiments. […]

HCT-116 [5] = test: as above; assay type: cell-based, human; settings: 100 nM, 24 hours
Experimental: as §7, §8, §9

SW48 = test: as above; assay type: cell-based, human; settings: 100 nM, 24 hours
Experimental: as §7, §8, §9

| Compound | cell viability (MTT), combination (HCT-116 [1]) | cell viability (MTT), combination (LoVo [2]) | effectiveness of etoposide alone (MTT) (LoVo [2]; LoVo versus HCT-116, time-dependent) | early apoptosis (Annexin V) (HCT-116 [3]) | early apoptosis (Annexin V) (LoVo [4]) | UBXN2A protein (UBXN2A; etoposide 20 and 50 μM, 24 h) | UBXN2A mRNA (UBXN2A; etoposide 24 h) | p53 upregulation and nuclear localization (p53) | apoptosis (Annexin V positive cells) (CCD-18Co) | apoptosis (Annexin V positive cells) (HCT-116 [5]) | apoptosis (Annexin V positive cells) (SW48) |
| --- | --- | --- | --- | --- | --- | --- | --- | --- | --- | --- | --- |
| COc1cc([C@@H]2c3cc4c(cc3[C@@H](O[C@@H]3O[C@@H]5CO[C@@H](C)O[C@H]5[C@H](O)[C@H]3O)[C@H]3COC(=O)[C@H]23)OCO4)cc(OC)c1O [etoposide] | significantly enhanced the VTD-induced decrease in cell viability | significantly enhanced the VTD-induced decrease in cell viability | more effectiveness in well differentiated cells (LoVo) than HCT-116 cells | significantly sensitizes | significantly sensitizes | increased; also recorded: significant upregulation of UBXN2A | increased; also recorded: enhances transcription of UBXN2A | upregulation and nuclear localization of p53 becomes significant | – | – | – |
| CN[C@@H]1C[C@H]2O[C@@](C)([C@@H]1OC)n1c3ccccc3c3c4c(c5c6ccccc6n2c5c31)C(=O)NC4 [staurosporine] | – | – | – | – | – | – | – | – | induce significant apoptosis | induce significant apoptosis | induce significant apoptosis |

From patent US12233129B2, “Methods and compositions for the treatment of cancer” (priority 2019, dated 2025)
